Counter-ions that a name gives are not always drawn. Like-named read-outs stand apart in the source and are kept apart here.
System: hESC-derived ECs versus ACL cells
Test: High-throughput screening of LOPAC library, PrestoBlue cell viability, hESC-derived ECs versus ACL cells
Format: cell-based, human
Procedure: High-throughput screening (HTS). HUAECS (Lonza) and hESC-derived ECs were cultured in EGM-2 medium while human anterior cruciate ligament cells (ACL cells) were cultured in Dulbecco's modified Eagle's medium (DMEM; PAA) supplemented with 10% FBS, 0.2 mM ascorbic acid 2-phosphate magnesium salt (Sigma Aldrich), […] streptomycin and 100 U/mL penicillin (Life Technologies). ACL cells were isolated from patients that have signed an informed consent form, in compliance with the Dutch legislation. The ethical committee of Medisch Spectrum Twente Hospital approved the collection.
The LOPAC library (Sigma-Aldrich) was used to screen embryonic endothelial-specific cytotoxic compounds. The compounds were solubilized in DMSO. The final compound concentration used in the screen was 4.5 μM in a final volume of 200 μL per well (96-well plate). HUAECs, hESC-derived EC and ACL cells were seeded at 16,000 cells/well (HUAECs and hESC-derived ECs) and 5,000 cells/well (ACL cells) and allowed to reach near confluence (approximately two days). After two days, medium was exchanged and test compounds and controls were added to the 96-well plates (all wells contained 0.25% (v/v) DMSO). After 4 days of incubation, cell viability was assessed using a PrestoBlue (Invitrogen) assay. This assay is based on a resazurin-based solution that indicates the reducing power of living cells and therefore measures indirectly their number. For each measurement, cell medium was removed and the PrestoBlue solution (10%) was added for 3 h at 37° C. upon which the absorbance was measured at 560-590 nm.
Disruption of vascular development has been directly correlated with prenatal loss, malformations and neurodevelopmental problems^41-44. […] The library was screened at a single dosage of 4.5 μM in a volume of 200 μL per well of EGM-2 medium, containing 0.25% DMSO (v/v). […] Six compounds (danazol, chlorpromazine hydrochloride, ellipticine, 3′,4′-dichlorobenzamil, fluphenazine dihydrochloride and 7-cyclopentyl-5-(4-phenoxy)phenyl-7H-pyrrolo[2,3-d]pyrimidin-4-ylamine) affected cell viability in both cells by a difference of 20% (FIG. 4B). The six compounds belong to different classes: cell cycle, ion pumps, dopamine pathway, phosphorylation and hormone signaling. The compounds selected from the primary screen were then tested against hESC-derived ECs and HUAECs at eight different concentrations to obtain a dose-response curve (FIG. 4C and FIG. 14).

[1] = LOPAC screen, 4.5 μM, 4 days of incubation, PrestoBlue assay

Row | Compound | Differences (%) in cell viability (hESC-Derived ECs versus ACL cells) [1] | Differences (%) in cell viability (hESC-Derived ECs versus ACL cells)
1 | N[C@@H](Cn1cc(I)c(=O)[nH]c1=O)C(=O)O [S-5-lodowillardiine] | 52.8% | –
2 | C[C@]12C=CC(=O)C=C1CC[C@@H]1C2=CC[C@]2(C)[C@@H](C(=O)CN3CCN(c4cc(N5CCCC5)nc(N5CCCC5)n4)CC3)CC[C@@H]12.O=C(O)/C=C\C(=O)O [U-74389G maleate] | 51.6% | –
3 | COc1cc(-c2ccc(=O)[nH]n2)ccc1OC(F)F [Zardaverine] | 84.0% | –
4 | CCCCCCCC/C=C\CCCCCCCC(=O)NCCc1ccc(O)c(O)c1 [N-Oleoyldopamine] | 54.8% | –
5 | (±)-Butaclamol hydrochloride | 53.6% | –
6 | CCN(CC)C(=O)N[C@H]1C[C@@H]2c3cccc4[nH]cc(c34)C[C@H]2N(C)C1 [R(+)-Terguride] | 57.1% | –
7 | N#CC(=C(/N)Sc1ccccc1N)/C(C#N)=C(\N)Sc1ccccc1N [U0126] | – | 68.9%
8 | COc1cc([C@@H]2c3cc4c(cc3[C@H](O)[C@H]3COC(=O)[C@H]23)OCO4)cc(OC)c1OC [Podophyllotoxin] | 75.7% | –
9 | CC[C@H]1CN2CCc3cc(OC)c(OC)cc3[C@@H]2C[C@@H]1C[C@H]1NCCc2cc(OC)c(OC)cc21 [Emetine dihydrochloride hydrate] | 93.4% | –
10 | Oc1cc(-c2ccccc2)nc2nc(Cl)ccc12 [7-Chloro-4-hydroxy-2-phenyl-1,8-naphthyridine] | 59.1% | –
11 | c1ccc2c(c1)[I+]c1ccccc1-2 [Diphenyleneiodonium chloride] | 69.6% | –
12 | C[C@@]12C(=O)OC(=O)[C@]1(C)[C@H]1CC[C@@H]2O1 [Cantharidin] | 94.3% | –
13 | CC1=C(C)C(=O)C(CCCCC#CCCCC#CCO)=C(C)C1=O [AA-861] | 53.3% | –
14 | Ivermectin | 78.7% | –
15 | O=C1NCN(c2ccccc2)C12CCN(CCCC(c1ccc(F)cc1)c1ccc(F)cc1)CC2 [Fluspirilene] | 86.7% | –
16 | COc1cc2c(cc1O)CC[C@@H]1[C@@H]2CC[C@]2(C)[C@@H](O)CC[C@@H]12 [2-methoxyestradiol] | 84.3% | –
17 | COC(=O)Nc1nc2ccc(C(=O)c3cccs3)cc2[nH]1 [Nocodazole] | 76.4% | –
18 | O=C(Nc1ccc([N+](=O)[O-])cc1Cl)c1cc(Cl)ccc1O [Niclosamide] | 97.6% | –
19 | Clc1ccc(C(c2ccc(Cl)cc2)n2cc[n+](CC(OCc3ccc(Cl)cc3Cl)c3ccc(Cl)cc3Cl)c2)cc1 (stereo not shown) [Calmidazolium chloride] | 96.1% | –
20 | C/C(=C\c1ccc(C(=O)O)cc1)c1ccc2c(c1)C(C)(C)CCC2(C)C [TTNPB] | 92.6% | –
21 | Cc1c(C)c2c(c(C)c1O)CCC(C)(CN1CCN(c3cc(N4CCCC4)nc(N4CCCC4)n3)CC1)O2.Cl.Cl (stereo not shown) [U-83836 dihydrochloride] | 51.3% | –
22 | COC[C@H]1OC(=O)c2coc3c2[C@@]1(C)C1=C(C3=O)[C@@H]2CCC(=O)[C@@]2(C)C[C@H]1OC(C)=O [Wortmannin from Penicillium funiculosum, Wortmannin] | 57.9% | –
23 | COc1ccc(NC(=O)c2ccc(-c3ccc(-c4noc(C)n4)cc3C)cc2)cc1N1CCN(C)CC1 [GR 127935 hydrochloride] | 66.1% | –
24 | NC(=O)OCC(COC(N)=O)c1ccccc1 [Felbamate] | 50.5% | –
25 | Cc1ccc(S(=O)(=O)N[C@@H](Cc2ccccc2)C(=O)CCl)cc1 [N-p-Tosyl-L-phenylalanine chloromethyl ketone] | 63.9% | –
